Measured values as given in publication PMC10821025, “Bioprospection of Tenellins Produced by the Entomopathogenic Fungus Beauveria neobassiana” (Journal of Fungi, 2024).
In brackets after ≈: the same amount, converted by molar mass.

Columns and labels:
[1] = system: human endocervical adenocarcinoma (KB-3.1); assay: Cytotoxicity assay, KB3.1; format: cell-based; conditions: KB3.1 (endocervical adenocarcinoma), 5 days of incubation
Protocol: (§1) The cytotoxicity of isolated compounds was determined as previously described over a concentration range between […] against two mammalian cell lines: mouse fibroblasts (L-929) and human endocervical adenocarcinoma (KB-3.1). […] Following 5 days of incubation, we determined the minimum concentration of the tested compounds required to achieve 50% growth inhibition, expressed as IC50 values.

[2] = system: Escherichia coli [DSM 1116]; assay: Serial dilution assay (MIC); format: cell-based; conditions: DSM1116, read-out: MIC
Protocol: (§2) All isolated compounds were assessed for their antimicrobial activity using a serial dilution assay over a concentration range from 67 to 0.5 µg/mL following the previously described protocols. In brief, the antimicrobial activity of all isolated metabolites was assessed by determining their minimum inhibitory concentration (MIC) against a range of different pathogens, including five fungal species: Candida albicans [DSM 1665], Mucor hiemalis [DSM 2656], Schizosaccharomyces pombe [DSM 70572], Rhodotorula glutinis [DSM 10134], and Wickerhamomyces anomalus [DSM 6766], as well as various Gram-positive: Staphylococcus aureus [DSM 346], Bacillus subtilis [DSM 10], Mycolicibacterium smegmatis [ATCC 700084], and Gram-negative bacteria: Acinetobacter baumanii [DSM 30008], Escherichia coli [DSM 1116], Chromobacterium violaceum [DSM 30191], and Pseudomonas aeruginosa [PA14]. In our experiments, gentamicin served as the positive control against most bacteria, while nystatin acted as the positive control against all fungi. For specific microorganisms, namely A. baumannii, B. subtilis, and M. smegmatis, ciprofloxacin, oxytetracycline, and kanamycin were used as positive controls, respectively.

[3] = system: Wickerhamomyces anomalus [DSM 6766]; assay: Serial dilution assay (MIC); format: cell-based; conditions: Hansenula anomala, DSM6766
Protocol: as §2

[4] = system: Mycolicibacterium smegmatis [ATCC 700084]; assay: Serial dilution assay (MIC); format: cell-based; conditions: Mycolicibacterium smegmatis, ATCC700084; Mycobacterium smegmatis; read-out: MIC
Protocol: as §2

[5] = system: Pseudomonas aeruginosa [PA14]; assay: Serial dilution assay (MIC); format: cell-based; conditions: read-out: MIC
Protocol: as §2

[6] = system: Acinetobacter baumanii [DSM 30008]; assay: Serial dilution assay (MIC); format: cell-based; conditions: Acinetobacter baumannii, DSM30008
Protocol: as §2

[7] = system: Staphylococcus aureus [DSM 346]; assay: Serial dilution assay (MIC); format: cell-based; conditions: DSM346, read-out: MIC
Protocol: as §2

[8] = system: Mucor hiemalis [DSM 2656]; assay: Serial dilution assay (MIC); format: cell-based; conditions: DSM2656, read-out: MIC
Protocol: as §2

[9] = system: Chromobacterium violaceum [DSM 30191]; assay: Serial dilution assay (MIC); format: cell-based; conditions: DSM30191, read-out: MIC
Protocol: as §2

[10] = system: Schizosaccharomyces pombe [DSM 70572]; assay: Serial dilution assay (MIC); format: cell-based; conditions: DSM70572
Protocol: as §2

[11] = system: Candida albicans [DSM 1665]; assay: Serial dilution assay (MIC); format: cell-based; conditions: DSM1665, read-out: MIC
Protocol: as §2

[12] = system: Bacillus subtilis [DSM 10]; assay: Serial dilution assay (MIC); format: cell-based; conditions: DSM10, read-out: MIC
Protocol: as §2

[13] = system: Rhodotorula glutinis [DSM 10134]; assay: Serial dilution assay (MIC); format: cell-based; conditions: DSM10134
Protocol: as §2

[14] = system: S. aureus (DSM 1104) biofilm formation; assay: Biofilm inhibition assay (Crystal Violet staining); format: cell-based, Staphylococcus aureus; conditions: for inhibitory activity on S. aureus biofilm formation (in words): 125–7.8 µg/mL; for Biofilm inhibition (% ± SD): S. aureus (DSM 1104); for Biofilm inhibition (% ± SD) / inhibition at 7.8 µg/mL: 7.8 µg/ml; for inhibition at 7.8 µg/mL / inhibition at 15.62 µg/mL / inhibition at 31.25 µg/mL / inhibition at 62.5 µg/mL / inhibition at 125 µg/mL: Staphylococcus aureus, DSM1104, S. aureus (DSM 1104), read-out: Biofilm inhibition (% ± SD)
Protocol: The compounds were evaluated for their ability to inhibit S. aureus (DSM 1104) biofilm formation, following the established procedure. Briefly, serially diluted compounds (125–7.8 µg/mL) were co-incubated with S. aureus in 96-well plates in CASO medium supplemented with 4% of glucose (see Supplementary Materials). Biofilm inhibition was assessed by using Crystal Violet staining after […], with microporenic acid A serving as a positive control and methanol as solvent control.
Biofilm inhibition assays were condu cted acco rding to th e methodolo g y previousl y described (Soliga et al., 2021), targeting the inhibition of biofilm formation in Staphylococcus aureus […]
S. aureus were cultured i n LB and CASO medium at 37 °C for 18 h, respect ivel y, in a shaker at 120 rpm after being thawed from a -20 °C stock solution. The culture's optical densit y at 600 nm (OD600) was measured and adjusted to a 0.1 McFarland standard in M63 minimal medium supplemented with necessar y nutrients and CASO medi um with 4% glucose for S. aureus, respectively. Microtiter plates were loaded with 150 µL of the bacterial suspension containing s eriall y diluted test compounds (7.8 -125 µg/m L) and incubated for 24 h at 37 °C. The evaluation of biofilm inhibition was performed by staining the biofilm with 0.1% cr ystal violet (CV). After staining, the plates were washed, and the biofilm dissolved in 95% ethanol. The absorbance of the dissolved biofilm was measured at 530 nm using a plat e reader. Negative control involved methanol (2.5%) while microporenic acid A at a concentration range of 7.8 to 125 µg/mL were used as the positive control for S. aureus (Chepkirui et al., 2018). All experiments were performed three times, and the standard deviation (SD) was maintained at or below 15% for S. aureus .
Differences between sam ples and the control grou p were determined b y a t wo-tailed Student’s t-test. Statistical significan ce was defined as p < 0.01. Anal ysis was carri ed out using GraphPad Prism 9® (GraphPad Software, San Diego, CA, USA). […]

[15] = system: mouse fibroblasts (L-929); assay: Cytotoxicity assay, L929; format: cell-based; conditions: L929 (fibroblast), 5 days of incubation
Protocol: as §1

[16] = system: Curvularia lunata; set-up: method as in doi:10.1016/j.phytol.2021.03.003; conditions: cited from earlier work
[17] = system: lung cancer (A-549) cell line; assay: Cytotoxicity assay, A549; format: cell-based; conditions: Homo sapiens, 120 h; A549 (lung), 5 days of incubation; read-out: IC50
[18] = system: S. aureus; set-up: method as in doi:10.1016/j.phytol.2021.03.003; conditions: cited from earlier work
[19] = system: breast cancer (MCF-7) cell line; assay: Cytotoxicity assay, MCF-7; format: cell-based; conditions: Homo sapiens, MCF7, 120 h; MCF-7 (breast), 5 days of incubation; read-out: IC50

CCC(C)/C=C(C)/C=C/C(=O)C1=C(O)[C@H]([C@H](O)c2ccc(O)cc2)NC1=O (stereo partly shown) [Compound 2, Prototenellin D]
IC50 ([1]; Homo sapiens, KB 3-1, 120 h): 64.7 µM
IC50 (µM) [1]: weak or no activity
MIC [2]: > 67 µg/mL
MIC [3]: > 67 µg/mL
MIC [4]: > 67 µg/mL
MIC [5]: > 67 µg/mL
MIC [6]: > 67 µg/mL
MIC [7]: > 67 µg/mL
MIC [8]: > 67 µg/mL
MIC [9]: > 67 µg/mL
MIC [10]: > 67 µg/mL
MIC [11]: > 67 µg/mL
MIC [12]: > 67 µg/mL
MIC [13]: > 67 µg/mL
inhibitory activity on S. aureus biofilm formation (in words) [14]: promising activities in a dose-dependent manner
Biofilm inhibition (% ± SD) ([14]; listed as prototenellin D (2)): more than 50%
inhibition at 7.8 µg/mL [14]: 53 ± 7%
inhibition at 15.62 µg/mL [14]: 56 ± 8%
inhibition at 31.25 µg/mL [14]: 80 ± 10%
inhibition at 62.5 µg/mL [14]: 83 ± 9%
inhibition at 125 µg/mL [14]: 84 ± 17%
IC50 (µM) [15]: weak or no activity
IC50 ([15]; Mus musculus, L929, 120 h): 70.1 µM

CCC(C)/C=C(C)/C=C/C(=O)c1c(O)c(-c2ccc(O)cc2)cn(O)c1=O (stereo not shown) [Compound 4, Tenellin]
MIC [16]: 3.13 µg/mL (≈ 8.47 µM)
IC50 [17]: 0.24 µM
IC50 ([1]; Homo sapiens, KB 3-1, 120 h): 0.79 µM
MIC [2]: > 67 µg/mL
MIC [3]: > 67 µg/mL
MIC [4]: > 67 µg/mL
MIC [5]: > 67 µg/mL
MIC [6]: > 67 µg/mL
MIC [7]: 16.6 µg/mL (≈ 44.9 µM)
MIC [8]: 66.6 µg/mL (≈ 180 µM)
MIC [9]: > 67 µg/mL
MIC [10]: > 67 µg/mL
MIC [11]: 66.6 µg/mL (≈ 180 µM)
MIC [12]: 8.3 µg/mL (≈ 22.5 µM)
MIC [13]: > 67 µg/mL
MIC [18]: 6.25 µg/mL (≈ 16.9 µM)
inhibitory activity on S. aureus biofilm formation (in words) [14]: promising activities in a dose-dependent manner
Biofilm inhibition (% ± SD) ([14]; listed as tenellin (4)): ca. 30%
inhibition at 7.8 µg/mL [14]: 36 ± 13%
inhibition at 15.62 µg/mL [14]: 51 ± 19%
inhibition at 31.25 µg/mL [14]: 73 ± 15%
inhibition at 62.5 µg/mL [14]: 80 ± 4%
inhibition at 125 µg/mL [14]: 78 ± 5%
IC50 ([15]; Mus musculus, L929, 120 h): 0.79 µM
IC50 [19]: 2 µM

CCC(/C=C(C)/C=C/C(=O)c1c(O)c(-c2ccc(O)cc2)cn(O)c1=O)CO (stereo not shown) [Compound 5, 15-Hydroxytenellin]
IC50 [17]: 2.6 µM
IC50 ([1]; Homo sapiens, KB 3-1, 120 h): 4.9 to 6.8 µM
IC50 [1]: 6 µM
MIC [2]: > 67 µg/mL
MIC [3]: > 67 µg/mL
MIC [4]: > 67 µg/mL
MIC [5]: > 67 µg/mL
MIC [6]: > 67 µg/mL
MIC [7]: 66.6 µg/mL (≈ 173 µM)
MIC [8]: > 67 µg/mL
MIC [9]: > 67 µg/mL
MIC [10]: > 67 µg/mL
MIC [11]: > 67 µg/mL
MIC [12]: 66.6 µg/mL (≈ 173 µM)
MIC [13]: > 67 µg/mL
inhibition at 15.62 µg/mL [14]: 47 ± 12%
inhibition at 31.25 µg/mL [14]: 78 ± 5%
inhibition at 62.5 µg/mL [14]: 85 ± 2%
inhibition at 125 µg/mL [14]: 86 ± 1%
IC50 [15]: 6.8 µM
IC50 ([15]; Mus musculus, L929, 120 h): 4.9 to 6.8 µM
IC50 [19]: 8.1 µM
